Experimental data: US20050169883A1, “Preblocking with non-ha gags increases effectiveness of ha conjugated anticancer agents” (priority 2002, published 2005)

Tests used:
[1] = test system: SK-OV-3 human ovarian cancer cells; assay: In vitro cytotoxicity, MTT dye uptake; type: cell-based; conditions: 72 h, SK-OV-3 cells, 3 days incubation, DOX equivalent
Experimental: (§1) HBL-100, a human breast cancer cell-line, was maintained in culture in high glucose D-MEM (Dulbecco's Modified Eagle Medium), which was supplemented with 10% γ-irradiated fetal bovine serum (FBS) and 1% sodium pyruvate; SK-OV-3, a human ovarian cancer cell-line was cultured in D-MEM/F12+10% FBS; HCT-116, a colon tumor cell-line, was maintained in culture in α-MEM (Minimal Essential Medium, Eagle)+10% FBS. 4T1 mouse breast cancer cells and TSU human bladder cancer cells were cultured with 10% calf serum-90% Dulbecco's modified Eagle's medium (DMEM) at 37° C. in 5% CO2 incubator.
(§2) All ^1H NMR spectral data were obtained using an NR-200 FT-NMR spectrometer at 200 MHz (IBM Instruments Inc.). UV-Vis spectra were recorded on a Hewlett Packard 8453 UV-Vis diode array spectrophotometer (Palo Alto, Calif.). HA was characterized by gel permeation chromatography (GPC) was on the following system: Waters 515 HPLC pump, Waters 410 differential refractometer, and Waters™ 486 tunable absorbance detector, Waters Ultrahydrogel 250 and 2000 columns (7.8 mm ID×30 cm) (Milford, Mass.) were used for GPC analysis, the eluent was 150 mM pH 6.5 phosphate buffer/MeOH=80:20 (v/v), and the flow rate was 0.5 in L/min. The system was calibrated with HA standards supplied by Dr. O. Wik (Pharmacia). […] Cell viability in cell culture was determined by thiazoyl blue (MTT) dye uptake protocols measured at 540 nm, which was recorded on a BIO-RAD M-450 microplate reader (Hercules, Calif.). […] Fluorescence images were taken using FITC settings with the 488 nm excitation line and a 522 nm 32 bandpass filter was used to collect the images.
(§3) The cytotoxicity of HA-DOX and HPMA-HA-DOX conjugates against HBL-100, SKOV-3 and HCT-116 cells was determined using a 96-well plate format in quadruplicate with increasing doses range from 0.001-10 mg/mL of DOX equivalent. […] Thus, a 2-μL aliquot of the stock solution was added to each well, and cells were continuously incubated at 37° C., 5% CO2 for 3 days with the test substance, and cell viability was determined using MTT dye uptake at 540 nm. […]

[2] = test system: HBL-100 human breast cancer cells; assay: In vitro cytotoxicity, MTT dye uptake; type: cell-based; conditions: 72 h, HBL-100 cells, 3 days incubation, DOX equivalent
Experimental: as §1, §2, §3

[3] = test system: HCT-116 human colon cancer cells; assay: In vitro cytotoxicity, MTT dye uptake; type: cell-based; conditions: 72 h, HCT-116 cells, 3 days incubation, DOX equivalent
Experimental: as §1, §2, §3

[4] = test system: human prostate cancer cell-line DU-145; assay: In vitro cytotoxicity against prostate cancer cell line; type: cell-based; conditions: DU-145 cells, DOX equivalent
Excerpt: The in vitro cytotoxicity of HPMA-HA-DOX with 17% and 36% HA loading against cultured prostate cancer cell line DU-145 was examined. FIG. 8 depicts the in vitro cytotoxicity results of the HPMA-HA-DOX bioconjugates. The cytotoxicity of targeted HPMA-HA-DOX bioconjugates were dramatically higher than non-targeted HPMA-DOX conjugate (Table 2), and 8- to 12-fold higher than the free DOX drug against this prostate cancer cell-line.

4T1 tumors = assay: Chondroitin sulfate blocking study, survival of mice bearing 4T1 tumors; type: in vivo, mouse; conditions: experiment period of 33 days; ten i.p. injections every other day
Experimental: This procedure was carried out every other day for 20 days, and mice received a total of ten injections. The mice were recorded for their survival days and the survival rate was calculated.
This procedure was carried out every other day for 20 days, and mice received a total of ten injections. The mice were recorded for their survival during a 33 day experimental period s and the survival rate was calculated.

4T1 breast cancer cells = assay: Spontaneous lymph node metastasis of 4T1 cells injected into foot pad; type: in vivo, mouse; conditions: for Weight of lymph node: s.c. three times a week for three weeks, 4 mg/kg Taxol equivalent
Experimental: The 4T1 breast cancer cells were injected into foot pat of syngenic BABL/c mice. […] About 0.2 ml of above agents were administrated by subcutaneous (s.c.) injection at the middle of leg three times a week, from where HA-drug could be drained/absorbed into popliteal and inguinal lymph path, in which the spontaneous metastases were expected to take place.
The lymph nodes were carefully dissected out from surrounding fat, measured for the weights and processed for pathology.

[5] = test system: 4T1 mouse breast cancer cells; assay: In vivo anti-tumor effect, 4T1 tumor model in BABL/c mice; conditions: 4 mg/kg Taxol or equivalent, i.p. every other day; versus vehicle and Taxol alone
Experimental: The 4T1 mouse breast cancer cells (10^6/site) were subcutaneously injected into either BABL/c mice and allowed to grow for 2 days for the tumor to be established. […] The injection was carried out every other day for two to four weeks. The tumor sizes were measured twice a week. At the end of experiment, the mice were sacrificed and the tumor were harvested, photographed and weighted.

TSU cells = assay: HA degradation assay; type: cell-based, human; conditions: 48 hours, KM201 200 μg/ml or chloroquine 0.1 mM
Experimental: (§4) The assay was carried out as described (CBU) with some modification. […] In some wells, the media contained 200 μg/ml of KM201 (a neutralization antibody against CD44) or 0.1 mM of chloroquine (an inhibitor of lysosomal enzymes). The media were collected, which contained some of the released and degraded ^3H-HA. […] The media and the supernatant from cells were centrifuged with Centricon 30 (Amicon, Danvers, Mass.). The un-degraded high MW ^3H-HA was retained in the upper chamber.
(§5) This mixture was then separated by filter membrane with MW cut of 30,000 Dalton.

4T1 cells = assay: HA degradation assay; type: cell-based, mouse
Experimental: as §4, §5
CD44 was examined to determine if it was expressed by 4T1 cells and if it could interact with HA. First, CD44 was detected by Western blotting. […] The binding was specific as it could be inhibited by excess of cold HA (FIG. 14B).

[6] = test system: HA binding sites in the major organs; assay: Chondroitin sulfate pretreatment, organ and tumor up-take of 3H-HA; type: in vivo, mouse
Experimental: The tumors and organs were collected, weighted, and homogenized with ultrasound to make tissue homogenates. The protein concentration was normalized to 0.1 mg/ml. Then, 300 μl of tissue homogenates were mixed with 2.5 ml of scintillation solution and counted for the radioactivity. […] Twenty-four hours later, the mice were sacrificed and the homogenates of tumors and organs were counted for the radioactivity.
This approach did reduce the HA taken up by liver and increased the amount of HA accumulated in tumors.
One day later, the tumors and organs were collected, weighed, homogenized with ultrasound to make tissue lysate at a protein concentration of 0.1 mg/ml. Then, 300 μl of tissue lysate were mixed with 2.5 ml of scintillation solution and counted for the radioactivity.

COc1cccc2c1C(=O)c1c(O)c3c(c(O)c1C2=O)C[C@@](O)(C(=O)CO)C[C@@H]3O[C@H]1C[C@H](N)[C@H](O)[C@H](C)O1 [DOX, Doxorubicin]
IC50 [1]: 0.92 µM | IC50 [2]: 0.15 µM | IC50 [3]: 0.35 µM | IC50 [4]: 31.5 µM

CC(=O)O[C@H]1C(=O)[C@@]2(C)[C@H]([C@H](OC(=O)c3ccccc3)[C@]3(O)C[C@H](OC(=O)[C@H](O)[C@@H](NC(=O)c4ccccc4)c4ccccc4)C(C)=C1C3(C)C)[C@]1(OC(C)=O)CO[C@@H]1C[C@@H]2O [Taxol]
survival rate (4T1 tumors): 60% | Inhibition ratio (%) (4T1 breast cancer cells; inguinal lymph node metastasis): 31.8% | Weight of lymph node (4T1 breast cancer cells; inguinal lymph node): 9.00 ± 0.79 | Inhibition ratio (%) (4T1 breast cancer cells; popliteal lymph node metastasis): −1.7% | Weight of lymph node (4T1 breast cancer cells; popliteal lymph node): 46.70 ± 5.05 | size of 4T1 tumors [5]: did not reduce the size

CCN(CC)CCCC(C)Nc1ccnc2cc(Cl)ccc12 (stereo not shown) [chloroquine]
degradation of high MW 3H-HA by cells (TSU cells): reduce the degraded ^3H-HA | degradation of high MW 3H-HA by cells (4T1 cells; 48 hours, KM201 200 μg/ml or chloroquine 0.1 mM): reduce the degraded ^3H-HA | CD44 mediated degradation of 3H-HA (4T1 cells; 72 hours): inhibited

chondroitin sulfate
up-take of HA in the major organs ([6]; chondroitin sulfate i.v. two hours before 3H-HA, 24 hours): reduced their up-take of HA | 3H-HA in tumors versus untreated mice ([6]; chondroitin sulfate pretreatment): higher | amount of 3H-HA in the liver versus vehicle alone ([6]; liver monitored for two days): much lower
